Measured values: patent US20220143006A1, “METHODS OF TREATING CANCER WITH FARNESYLTRANSFERASE INHIBITORS” (Kura Oncology, Inc., priority 2019, published 2022)
“Also recorded” adds a separate entry of the source.

Legend:
[1] = tested on: tumors in nude mice; settings: cited from earlier work
[2] = tested on: Ras-dependent and -independent malignant tumors; settings: cited from earlier work
[3] = tested on: relapsed or refractory Peripheral T-Cell Lymphoma (PTCL); assay: Phase 2 clinical study of tipifarnib in PTCL (NCT02464228): objective response by KIR mutation status, PTCL-NOS and AITL patients together; type: in vivo, human
Protocol: (§1) This example describes an ongoing Phase 2 clinical study of tipifarnib with the primary objective being to assess the antitumor activity in terms of Overall Response Rate (ORR) of tipifarnib in approximately 18-30 eligible subjects eligible subjects with Peripheral T-Cell Lymphoma (PTCL) (ClinicalTRials.gov identifier: NCT02464228).
(§2) Subjects receive tipifarnib administered at a starting dose of 300 mg, orally with food, twice a day (bid) on Days 1-21 in 28 day cycles (i.e. 3 weeks on/1 week off). Stepwise 100 mg dose reductions to control treatment-related, treatment-emergent toxicities were also allowed. Subjects who received tipifarnib bid on days 1-7 and days 15-21 in 28 day cycles during the conduct of earlier versions of this protocol were permitted to remain on that dose regimen at the discretion of the investigator. Alternatively, the subject was permitted to transition to receive a dose of 300 mg, orally with food, bid on days 1-21 of 28 day treatment cycles beginning on Day 1 of their next cycle. In the absence of unmanageable toxicities, subjects may continue to receive tipifarnib treatment for up to 12 months in the absence of disease progression and unmanageable toxicity. Treatment was permitted to continue beyond 12 months upon agreement of the Investigator and Sponsor.
(§3) Tumor assessments are performed at screening, at the Day 22 visit (±5 days) performed during Cycles 2, 4, 6 and once every approximately 12 weeks (cycles 9, 12, 15, etc.) thereafter, until disease progression.
(§4) Determination of objective tumor response is performed based on the Lugano Classification (Cheson 2014, Appendix II: The Lugano Classification) and/or measurable cutaneous disease according to the modified Severity Weighted Assessment Tool (mSWAT, Olsen 2011, Appendix III: Modified Severity Weighted Assessment Tool).
(§5) Primary outcome measures: objective response rate (ORR) following treatment with tipfarnib. [Time Frame: 2 years]. Response assessments according to IWC and/or mSWAT.
(§6) This Phase II study investigates the antitumor activity in terms of ORR of tipifarnib in approximately 18-30 eligible subjects with relapsed or refractory PTCL. The first 18 subjects were permitted to have the following PTCL sub-types: PTCL, not otherwise specified (PTCL-NOS), angioimmunoblastic T-cell lymphoma (AITL), ALK-positive and -negative anaplastic large cell lymphoma (ALCL), hepatosplenic T-cell lymphoma, enteropathy-associate T-cell lymphoma (EATL), extranodal natural killer (NK) T-cell lymphoma, nasal type and subcutaneous panniculitis-like T-cell lymphoma. The AITL expansion cohort (N=12) enrolls only subjects with AITL. Only consented subjects who meet all eligibility criteria were enrolled in the study. Eligible subjects received tipifarnib administered at a starting dose of 300 mg, orally with food, twice a day (bid) on Days 1-21 in 28 day cycles (i.e. 3 weeks on/1 week off). Stepwise 100 mg dose reductions to control treatment-related, treatment-emergent toxicities were also allowed. Subjects who received tipifarnib bid on days 1-7 and days 15-21 in 28 day cycles during the conduct of earlier versions of this protocol were permitted to remain on that dose regimen at the discretion of the investigator. Alternatively, the subject was permitted to transition to receive a dose of 300 mg, orally with food, bid on days 1-21 of 28 day treatment cycles beginning on Day 1 of their next cycle. In the absence of unmanageable toxicities, subjects may continue to receive tipifarnib treatment for up to 12 months in the absence of disease progression and unmanageable toxicity. Treatment was permitted to continue beyond 12 months upon agreement of the Investigator and Sponsor.
(§7) A two-stage study design was used for the first 18 subjects in order to minimize the number of study subjects treated if tipifarnib were considered not sufficiently efficacious to grant further development in this subject population. […]

[4] = tested on: angioimmunoblastic T-cell lymphoma (AITL); assay: Phase 2 clinical study of tipifarnib in PTCL: objective response by KIR mutation status, AITL patients; type: in vivo, human
Protocol: as §1, §2, §3, §4, §5, §6, §7

[5] = tested on: PTCL, not otherwise specified (PTCL-NOS); assay: Phase 2 clinical study of tipifarnib in PTCL: objective response by KIR mutation status, PTCL-NOS patients; type: in vivo, human; settings: FIG. 6, PTCL-NOS patients (N=9) with Q386E mutant of KIR3DL2
Protocol: as §1, §2, §3, §4
Primary outcome measures: objective response rate (ORR) following treatment with tipfarnib. [Time Frame: 2 years]. Response assessments according to IWC and/or mSWAT. […]

[6] = tested on: unselected tumor populations (AML, MDS/CMML, urothelial cancer, breast cancer, PTCL/CTCL); settings: single agent therapy, in man; cited from earlier work
[7] = FIG. 6, 14 patients with Q386E mutant of KIR3DL2 (PTCL-NOS N=9, AITL N=5)
[8] = FIG. 6, patients (N=13) with wild type (wt) KIR3DL2 at position 386
[9] = AITL, KIR3DL2 C336R/Q386E mutant, N=8
[10] = FIG. 1, 9 AITL patients, carriers of D184N mutant of KIR2DL1
[11] = FIG. 2, 9 AITL patients, carriers of E295D mutant of KIR2DL3
[12] = FIG. 2, 9 AITL patients, carriers of R162T mutant of KIR2DL3
[13] = FIG. 3, 9 AITL patients, carriers of Q149K, Q149R, and I154M mutants of KIR2DL4
[14] = FIG. 5, 9 AITL patients, carriers of C336R and Q386E mutants of KIR3DL2
[15] = FIG. 6, AITL patients (N=5) with Q386E mutant of KIR3DL2
[16] = FIG. 7, subset of 10 AITL patients, carriers of C336R and Q386E mutants of KIR3DL2

CC[C@H](C)[C@@H](CO[C@@H](Cc1ccccc1)C(=O)N[C@@H](CCS(C)(=O)=O)C(=O)O)NC[C@@H](N)CS [L-739749, 2(S)-[2(S)-[2(R)-amino-3-mercapto]propylamino-3(S)-methyl]-pentyloxy-3-phenylpropionyl-methionine sulfone]
system toxicity ([1]; mouse, in vivo): without system toxicity | antitumor activity ([1]; nude mice): potent antitumor activity

NC(=O)N1CCC(CC(=O)N2CCC([C@H]3c4ncc(Br)cc4CCc4cc(Cl)cc(Br)c43)CC2)CC1 [lonafarnib, (+)-(R)-4-[2-[4-(3,10-dibromo-8-chloro-5,6-dihydro-11H-benzo[5,6]cyclohepta[1,2-b]pyridin-11-yl)piperidin-1-yl]-2-oxoethyl]piperidine-1-carboxamide]
activity in malignant tumors [2]: active

Cn1cncc1[C@@](N)(c1ccc(Cl)cc1)c1ccc2c(c1)c(-c1cccc(Cl)c1)cc(=O)n2C [tipifarnib, (B)-6-[amino(4-chlorophenyl)(1-methyl-1H-imidazol-5-yl)methyl]-4-(3-chlorophenyl)-1-methyl-2(1H)-quinolinone]
ORR [3, 7]: 36% | objective responses: number of CRs [3, 7]: 3 | objective responses: number of PDs [3, 7]: 8 | objective responses: number of PRs [3, 7]: 2 | objective responses: number of SD [3, 7]: 1 | ORR [3, 8]: 8% | objective responses: number of PD [3, 8]: 9 | objective responses: number of PR [3, 8]: 1 | objective responses: number of SD [3, 8]: 3 | Clinical Benefit Rate (CR + PR + SD), patients/N ([4]; AITL, KIR3DL2 C336R/Q386E mutant): 8/8 | Clinical Benefit Rate (CR + PR + SD) [4, 9]: 100% | Overall Best Response: Complete Response (CR), number of patients [4, 9]: 4 | Overall Best Response: Partial Response (PR), number of patients [4, 9]: 2 | Overall Best Response: Stable Disease (SD), number of patients [4, 9]: 2 | Overall Response Rate (CR + PR) [4, 9]: 75% | Clinical Benefit Rate (CR + PR + SD), patients/N ([4]; AITL, KIR3DL2 wild type): 2/7 | Clinical Benefit Rate (CR + PR + SD) ([4]; AITL, KIR3DL2 wild type, N=7): 29% | Overall Best Response: Partial Response (PR), number of patients ([4]; AITL, KIR3DL2 wild type, N=7): 2 | Overall Best Response: Progressive Disease (PD), number of patients ([4]; AITL, KIR3DL2 wild type, N=7): 5 | Overall Response Rate (CR + PR) ([4]; AITL, KIR3DL2 wild type, N=7): 29% | objective responses: number of complete responses (CR) [4, 10]: 2 | objective responses: number of partial responses (PR) [4, 10]: 1 | objective responses: number of complete responses (CR) ([4]; FIG. 1, 9 AITL patients, carriers of F202L mutant of KIR2DL1): 2 | objective responses: number of complete responses (CR) ([4]; FIG. 1, 9 AITL patients, carriers of G179R mutant of KIR2DL1): 1 | objective responses: number of partial responses (PR) ([4]; FIG. 1, 9 AITL patients, carriers of N178D mutant of KIR2DL1): 1 | objective responses: number of complete responses (CR) ([4]; FIG. 1, 9 AITL patients, carriers of R197T mutant of KIR2DL1): 2 | objective responses: number of complete responses (CR) [4, 11]: 1 | objective responses: number of partial responses (PR) [4, 11]: 1 | objective responses: number of complete responses (CR) [4, 12]: 2 | objective responses: number of partial responses (PR) [4, 12]: 1 | objective responses: number of complete responses (CR) [4, 13]: 2 | objective responses: number of partial responses (PR) [4, 13]: 2 | objective responses: number of complete responses (CR) [4, 14]: 2 | objective responses: number of partial responses (PR) [4, 14]: 2 | ORR [4, 15]: 80% | objective responses: number of complete responses (CR) [4, 15]: 2 | objective responses: number of partial responses (PR) [4, 15]: 2 | objective responses: number of complete responses (CR) [4, 16]: 4 | objective responses: number of partial responses (PR) [4, 16]: 2 | ORR [5]: 11% | objective responses: number of CR [5]: 1 | objective responses: number of progressive disease (PD) [5]: 8 | safety and tolerability [6]: manageable safety profile; also recorded: reasonably well tolerated in man
